{
  "source": "patent US20080267939A1",
  "about": "“SYNERGISTIC ANTI-HYPERTENSIVE PHYTO-NUTRACEUTICAL COMPOSITION” (priority 2006, published 2008)",
  "origin": "cited, not measured here",
  "key": {"[1]": {"test_system": "bacterial resistance mechanism (multidrug pump)", "settings": "in the presence of 5′-MHC"}, "[2]": {"test_system": "aged diabetic Zucker fatty rats"}, "blood pressure [3]": {"test_system": "blood pressure", "settings": "lower doses"}, "[4]": {"test_system": "patients having class III or IV cardiomiopathy", "settings": "group A, during CoQ10 treatment, oral"}, "[5]": {"biological_target": "platelet activating factor (PAF) membrane receptors (Homo sapiens, UniProt P25105)", "sequence (P25105 whole entry)": "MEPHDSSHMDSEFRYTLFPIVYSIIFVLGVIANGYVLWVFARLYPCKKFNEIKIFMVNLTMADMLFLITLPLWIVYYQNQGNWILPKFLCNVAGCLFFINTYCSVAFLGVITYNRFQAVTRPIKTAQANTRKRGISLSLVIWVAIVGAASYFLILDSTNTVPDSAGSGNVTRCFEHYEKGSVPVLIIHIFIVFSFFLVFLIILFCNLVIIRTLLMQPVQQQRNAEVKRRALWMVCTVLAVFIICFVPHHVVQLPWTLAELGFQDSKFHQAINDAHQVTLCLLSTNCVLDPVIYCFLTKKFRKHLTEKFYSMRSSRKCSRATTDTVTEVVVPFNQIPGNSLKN"}, "[6]": {"biological_target": "T1, endothelial NO synthase (eNOS) (Homo sapiens, UniProt P29474)", "T1 sequence (P29474 1-1203)": "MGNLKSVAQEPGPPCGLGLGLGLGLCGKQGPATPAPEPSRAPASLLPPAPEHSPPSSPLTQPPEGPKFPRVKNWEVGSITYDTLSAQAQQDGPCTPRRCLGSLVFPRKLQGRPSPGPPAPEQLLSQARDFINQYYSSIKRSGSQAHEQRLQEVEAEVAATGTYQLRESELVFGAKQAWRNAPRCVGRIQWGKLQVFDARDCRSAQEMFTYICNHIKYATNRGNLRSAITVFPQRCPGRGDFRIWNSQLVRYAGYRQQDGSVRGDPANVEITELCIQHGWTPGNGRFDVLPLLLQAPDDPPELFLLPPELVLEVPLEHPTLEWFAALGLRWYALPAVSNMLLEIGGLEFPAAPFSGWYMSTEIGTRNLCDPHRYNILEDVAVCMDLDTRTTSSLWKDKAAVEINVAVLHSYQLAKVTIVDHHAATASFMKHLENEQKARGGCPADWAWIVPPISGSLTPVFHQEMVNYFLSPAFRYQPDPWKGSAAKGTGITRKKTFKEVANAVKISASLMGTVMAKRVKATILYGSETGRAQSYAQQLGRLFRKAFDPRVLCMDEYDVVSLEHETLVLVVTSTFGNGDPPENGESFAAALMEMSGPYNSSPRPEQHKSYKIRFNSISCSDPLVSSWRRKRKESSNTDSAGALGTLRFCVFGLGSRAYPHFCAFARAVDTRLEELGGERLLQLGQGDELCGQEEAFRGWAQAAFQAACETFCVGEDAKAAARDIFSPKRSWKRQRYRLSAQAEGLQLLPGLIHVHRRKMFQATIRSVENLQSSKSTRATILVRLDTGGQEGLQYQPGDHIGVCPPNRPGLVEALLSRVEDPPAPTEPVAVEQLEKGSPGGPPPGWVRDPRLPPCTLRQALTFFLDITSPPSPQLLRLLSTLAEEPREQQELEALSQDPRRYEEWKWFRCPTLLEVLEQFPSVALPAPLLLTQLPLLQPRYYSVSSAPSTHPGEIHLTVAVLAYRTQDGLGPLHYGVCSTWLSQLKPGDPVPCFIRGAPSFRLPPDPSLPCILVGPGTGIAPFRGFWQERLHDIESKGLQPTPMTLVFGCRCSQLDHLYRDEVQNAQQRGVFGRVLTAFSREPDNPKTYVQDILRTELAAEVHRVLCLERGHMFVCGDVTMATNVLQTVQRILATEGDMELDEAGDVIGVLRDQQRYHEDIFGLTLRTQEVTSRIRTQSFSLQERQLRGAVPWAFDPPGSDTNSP"}, "blood pressure [7]": {"test_system": "blood pressure", "settings": "in vivo"}, "renal hypertensive dogs": {"test_system": "renal hypertensive dogs", "settings": "chronic oral administration"}, "rabbit aortic rings": {"test_system": "rabbit aortic rings", "settings": "pre-contracted rabbit aortic rings"}, "[8]": {"test_system": "vascular smooth muscle cells"}, "L-type calcium channel [9]": {"biological_target": "T2, L-type calcium channel (Rattus norvegicus, UniProt P22002)", "T2 construct": "Effect of puerarin on L-type calcium channel in isolated rat ventricular myocytes; endogenous in cells; host or cells: isolated rat ventricular myocytes", "settings": "rat ventricular myocytes"}, "rat aorta [10]": {"test_system": "rat aorta", "settings": "endothelium-intact and endothelium-denuded rat aorta"}, "blood pressure [11]": {"test_system": "blood pressure", "settings": "clinically"}, "L-type calcium channel [12]": {"biological_target": "T3, L-type calcium channel (Cavia porcellus, UniProt O35505)", "T3 construct": "calcium channel in isolated guinea pig ventricular myocytes; endogenous in cells; host or cells: isolated guinea pig ventricular myocytes", "T3 sequence (O35505 whole entry)": "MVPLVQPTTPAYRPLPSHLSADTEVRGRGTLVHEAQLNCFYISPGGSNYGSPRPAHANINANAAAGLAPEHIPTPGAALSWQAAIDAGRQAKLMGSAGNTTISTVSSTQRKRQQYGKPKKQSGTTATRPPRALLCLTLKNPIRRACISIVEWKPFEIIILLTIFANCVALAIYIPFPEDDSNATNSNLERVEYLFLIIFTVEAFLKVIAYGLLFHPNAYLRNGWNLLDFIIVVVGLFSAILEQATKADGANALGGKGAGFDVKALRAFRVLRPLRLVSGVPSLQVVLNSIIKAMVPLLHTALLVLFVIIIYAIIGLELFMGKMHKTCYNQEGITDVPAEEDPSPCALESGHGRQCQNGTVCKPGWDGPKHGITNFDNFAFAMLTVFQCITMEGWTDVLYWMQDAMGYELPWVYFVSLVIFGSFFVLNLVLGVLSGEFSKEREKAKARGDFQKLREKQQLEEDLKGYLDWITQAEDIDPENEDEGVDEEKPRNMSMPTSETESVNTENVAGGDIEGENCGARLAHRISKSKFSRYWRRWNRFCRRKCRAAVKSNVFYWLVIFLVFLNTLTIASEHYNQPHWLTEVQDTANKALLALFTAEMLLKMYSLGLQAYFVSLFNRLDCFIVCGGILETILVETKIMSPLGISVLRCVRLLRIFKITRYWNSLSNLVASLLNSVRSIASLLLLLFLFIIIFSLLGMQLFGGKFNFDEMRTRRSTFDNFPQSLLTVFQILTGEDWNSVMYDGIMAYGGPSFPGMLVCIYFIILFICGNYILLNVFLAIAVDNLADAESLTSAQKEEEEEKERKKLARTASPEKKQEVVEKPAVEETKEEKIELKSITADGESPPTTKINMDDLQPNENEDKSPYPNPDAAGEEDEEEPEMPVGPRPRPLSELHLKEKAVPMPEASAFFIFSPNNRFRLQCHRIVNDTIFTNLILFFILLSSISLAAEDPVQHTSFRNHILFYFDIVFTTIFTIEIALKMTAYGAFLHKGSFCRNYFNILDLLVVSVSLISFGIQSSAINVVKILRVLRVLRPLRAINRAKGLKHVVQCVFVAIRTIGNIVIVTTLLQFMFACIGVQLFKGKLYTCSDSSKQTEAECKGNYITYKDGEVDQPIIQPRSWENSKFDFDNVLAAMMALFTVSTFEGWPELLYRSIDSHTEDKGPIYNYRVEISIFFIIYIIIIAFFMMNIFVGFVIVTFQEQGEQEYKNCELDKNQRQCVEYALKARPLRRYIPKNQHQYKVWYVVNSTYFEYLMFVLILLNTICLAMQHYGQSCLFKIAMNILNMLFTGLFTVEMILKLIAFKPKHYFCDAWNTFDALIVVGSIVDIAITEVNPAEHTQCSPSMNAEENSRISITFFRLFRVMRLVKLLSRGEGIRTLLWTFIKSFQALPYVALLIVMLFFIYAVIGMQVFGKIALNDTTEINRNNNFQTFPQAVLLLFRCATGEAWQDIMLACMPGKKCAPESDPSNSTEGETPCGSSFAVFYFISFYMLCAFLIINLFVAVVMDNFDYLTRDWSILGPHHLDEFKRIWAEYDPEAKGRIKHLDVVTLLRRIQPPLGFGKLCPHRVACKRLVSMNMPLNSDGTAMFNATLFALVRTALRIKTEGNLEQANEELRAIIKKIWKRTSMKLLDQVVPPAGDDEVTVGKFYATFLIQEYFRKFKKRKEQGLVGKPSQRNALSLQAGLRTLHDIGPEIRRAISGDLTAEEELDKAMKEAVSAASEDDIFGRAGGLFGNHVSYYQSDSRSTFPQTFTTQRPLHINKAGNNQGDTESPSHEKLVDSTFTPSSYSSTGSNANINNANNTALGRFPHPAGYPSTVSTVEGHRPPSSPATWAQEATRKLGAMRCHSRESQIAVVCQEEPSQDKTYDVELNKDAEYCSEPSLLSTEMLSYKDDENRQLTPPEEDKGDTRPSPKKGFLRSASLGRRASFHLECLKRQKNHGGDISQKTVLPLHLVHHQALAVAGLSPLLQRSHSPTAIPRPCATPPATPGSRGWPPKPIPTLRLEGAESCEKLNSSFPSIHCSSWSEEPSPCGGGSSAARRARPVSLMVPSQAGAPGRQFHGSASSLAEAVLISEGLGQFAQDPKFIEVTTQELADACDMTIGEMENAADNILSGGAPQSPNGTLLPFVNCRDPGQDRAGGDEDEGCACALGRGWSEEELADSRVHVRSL", "settings": "isolated guinea pig ventricular myocytes"}, "[13]": {"test_system": "spontaneously hypertensive rats"}, "[14]": {"test_system": "vascular smooth muscle cells", "remark": "listed apart in the source"}, "rat aorta [15]": {"test_system": "rat aorta"}},
  "data": [
    {"molecule": "COc1cc([C@H]2Oc3cc(-c4cc(=O)c5c(O)cc(O)cc5o4)cc(OC)c3O[C@@H]2CO)ccc1O", "note": "(racemic) [5′-MHC, 5′-methoxyhydnocarpin]", "values": [
      {"measurement": "accumulation of berberine in the cells", "setting": "[1]", "value": "strong increase"}
    ]},
    {"molecule": "O=C(O)CC(O)(C(=O)O)C(O)C(=O)O", "note": "(single isomer, unassigned; (-)) [(−)-hydroxycitric acid (HCA), (−)-hydroxycitric acid]", "values": [
      {"measurement": "blood pressures compared to control", "setting": "[2]", "value": "significantly lowered blood pressures"}
    ]},
    {"molecule": "CCCCC[C@H](O)CC(=O)CCc1ccc(O)c(OC)c1", "note": "[(6)-gingerol]", "values": [
      {"measurement": "response on the blood pressure", "setting": "blood pressure [3]", "value": "produced depressor response"}
    ]},
    {"molecule": "CCCCC/C=C/C(=O)CCc1ccc(O)c(OC)c1", "note": "[(6)-shogaol]", "values": [
      {"measurement": "response on the blood pressure", "setting": "blood pressure [3]", "value": "produced depressor response"}
    ]},
    {"molecule": "COC1=C(OC)C(=O)C(C/C=C(\\C)CC/C=C(\\C)CC/C=C(\\C)CC/C=C(\\C)CC/C=C(\\C)CC/C=C(\\C)CC/C=C(\\C)CC/C=C(\\C)CC/C=C(\\C)CCC=C(C)C)=C(C)C1=O", "note": "[CoQ10, Coenzyme Q10]", "values": [
      {"measurement": "cardiac function", "setting": "[4]", "value": "significant increases in cardiac function"}
    ]},
    {"molecule": "CC1C(=O)OC2C(O)C34C5CC(C(C)(C)C)C36C(OC(=O)C6O)OC4(C(=O)O5)C12O", "note": "(centres unmarked) [Ginkgolide B]", "values": [
      {"measurement": "inhibition of platelet activating factor (PAF)", "setting": "[5]", "value": "powerful inhibitor"}
    ]},
    {"molecule": "CC(C)=CCC[C@](C)(O[C@@H]1O[C@H](CO)[C@@H](O)[C@H](O)[C@H]1O)[C@H]1CC[C@]2(C)[C@@H]1[C@H](O)C[C@@H]1[C@@]3(C)CC[C@H](O)C(C)(C)[C@@H]3[C@@H](O[C@@H]3O[C@H](CO)[C@@H](O)[C@H](O)[C@H]3O[C@@H]3O[C@@H](C)[C@H](O)[C@@H](O)[C@H]3O)C[C@]12C", "note": "[Ginsenoside Re]", "values": [
      {"measurement": "eNOS activation / NO release", "setting": "[6]", "value": "activate endothelial NO synthase (eNOS) to release NO"}
    ]},
    {"molecule": "C[C@@H]1O[C@@H](O[C@@H]2[C@@H](O)[C@H](OCCc3ccc(O)c(O)c3)O[C@H](CO)[C@H]2OC(=O)/C=C/c2ccc(O)c(O)c2)[C@H](O[C@@H]2OC[C@@H](O)[C@@H](O)[C@@H]2O)[C@H](O)[C@H]1O", "note": "[Lavandulifolioside]", "values": [
      {"measurement": "blood pressure", "setting": "blood pressure [7]", "value": "decreases blood pressure"}
    ]},
    {"molecule": "O=C(O)CC[N+](=O)[O-]", "note": "[NPA, 3-Nitropropionic acid]", "values": [
      {"measurement": "blood pressure", "setting": "renal hypertensive dogs", "value": "decrease in blood pressure"},
      {"measurement": "relaxation of aortic rings", "setting": "rabbit aortic rings", "value": "dose-dependent relaxation"}
    ]},
    {"molecule": "O=c1c(-c2ccc(O)cc2)coc2c([C@@H]3O[C@H](CO)[C@@H](O)[C@H](O)[C@H]3O)c(O)ccc12", "note": "[Puerarin, puerarin]", "values": [
      {"measurement": "proliferation and DNA synthesis of vascular smooth muscle cells", "setting": "[8]", "value": "suppress"},
      {"measurement": "decrease of blood pressure", "setting": "laboratory animals", "value": 15, "unit": "%"},
      {"measurement": "L-type calcium current", "setting": "L-type calcium channel [9]", "value": "inhibit L-type calcium current"},
      {"measurement": "contractions induced by phenylephrine", "setting": "rat aorta [10]", "value": "completely relaxed"},
      {"measurement": "systolic and diastolic blood pressure", "setting": "blood pressure [11]", "value": "reduces both systolic and diastolic blood pressure"},
      {"measurement": "NO concentration and blood pressure", "setting": "rats with pre-eclampsia", "value": "elevate the level of NO concentration and decrease blood pressure"},
      {"measurement": "effect on L-type calcium channel", "setting": "L-type calcium channel [12]", "value": "blocking effect on L-type calcium channel in a concentration dependent manner"}
    ]},
    {"molecule": "COc1cc(/C=C/C(=O)O)ccc1O", "note": "[ferulic acid]", "values": [
      {"measurement": "carotid arterial pressure", "setting": "[13]; intravenous injection, anesthetized hypertensive rats", "value": "dose dependently reduced"},
      {"measurement": "systolic blood pressure", "setting": "[13]; oral administration, hypertensive rats", "value": "significantly decreased"}
    ]},
    {"molecule": "CCC/C=C1\\OC(=O)C2=C1CCC=C2", "note": "[ligustilide]", "values": [
      {"measurement": "vascular smooth muscle cells proliferation and cell cycle progression", "setting": "[14]", "value": "significantly inhibited"}
    ]},
    {"molecule": "Cycloleonuripeptide E", "values": [
      {"measurement": "vasorelaxant effects", "setting": "rat aorta [15]", "value": "moderate vasorelaxant effects"}
    ]},
    {"molecule": "cycloleonuripeptide F", "values": [
      {"measurement": "vasorelaxant effects", "setting": "rat aorta [15]", "value": "moderate vasorelaxant effects"}
    ]},
    {"molecule": "niacin-bound chromium", "values": [
      {"measurement": "blood pressures compared to control", "setting": "[2]", "value": "significantly lowered blood pressures"}
    ]}
  ]
}
